# Data from the NIST ThermoML archive (doi:10.1021/acs.jced.6b00429).
# ± gives the expanded uncertainty stated by the source.
# Conditions: Liquid, Ebulliometric method (Recirculating still)
structure (smiles),measurement,setting,value
"OCC(F)(F)C(F)F [2,2,3,3-tetrafluoro-1-propanol]",vapor or sublimation pressure,365.01 K,53.3 ± 0.5 kPa
same,vapor or sublimation pressure,370.79 K,66.7 ± 0.5 kPa
same,vapor or sublimation pressure,375.66 K,80 ± 0.6 kPa
"OCC(F)(F)C(F)(F)C(F)(F)C(F)F [2,2,3,3,4,4,5,5-octafluoro-1-pentanol]",vapor or sublimation pressure,394.71 K,53.3 ± 0.5 kPa
same,vapor or sublimation pressure,400.93 K,66.7 ± 0.5 kPa
same,vapor or sublimation pressure,406.16 K,80 ± 0.6 kPa
